# Results from the Deep4Chem optical property database.
# Assay: photoluminescence quantum yield (fraction); solvent given as SMILES
# [1] = in c1cc(-c2cccc(-n3c4ccccc4c4ccccc43)c2)cc(-n2c3ccccc3c3ccccc32)c1
compound,measurement,setting,value
CN(C)c1ccc(-c2nc(C#N)c(C#N)n2C)cc1,photoluminescence quantum yield,in C1CCCCC1,0.85
same,photoluminescence quantum yield,in CC#N,0.02
same,photoluminescence quantum yield,in CO,0.003
same,photoluminescence quantum yield,in ClC(Cl)Cl,0.73
N#Cc1coc2ccccc2c1=O,photoluminescence quantum yield,in C1CCOC1,0.035
same,photoluminescence quantum yield,in C1COCCO1,0.0009
same,photoluminescence quantum yield,in CC#N,0.0005
same,photoluminescence quantum yield,in CC(C)O,0.001
same,photoluminescence quantum yield,in CCCCO,0.003
same,photoluminescence quantum yield,in CCCO,0.001
same,photoluminescence quantum yield,in CCOC(C)=O,0.002
same,photoluminescence quantum yield,in CN(C)C=O,0.001
same,photoluminescence quantum yield,in CO,0.003
same,photoluminescence quantum yield,in CS(C)=O,0.003
same,photoluminescence quantum yield,in ClC(Cl)Cl,0.002
same,photoluminescence quantum yield,in O,0.001
Cc1cc2nc3c(=O)[nH]c(=O)n(C)c3nc2cc1C,photoluminescence quantum yield,in CC#N,0.027
CCOC(=O)CN(CC(=O)OCC)c1ccc(-c2cc(-c3cccnc3)nc(-c3cccnc3)c2)cc1,photoluminescence quantum yield,in CC#N,0.57
same,photoluminescence quantum yield,in CCOC(C)=O,0.69
same,photoluminescence quantum yield,in CN(C)C=O,0.53
same,photoluminescence quantum yield,in CS(C)=O,0.51
same,photoluminescence quantum yield,in c1ccccc1,0.77
Brc1ccc2[nH]c(-c3ccc(-c4ccc(-c5ccc(-c6nc7cc(Br)ccc7[nH]6)cc5)cc4)cc3)nc2c1,photoluminescence quantum yield,in CN(C)C=O,0.42
CCCCCCn1c2ccccc2c2cc(-c3ccc(-c4cc(-c5ccccn5)nc(-c5ccccn5)c4)cc3)ccc21,photoluminescence quantum yield,in ClCCl,0.73
CC1=[N+]2C(=C(c3ccc(Br)cc3)c3ccc(C)n3[B-]2(F)F)C=C1c1cc2n(c1)[B-](F)(F)[N+]1=CC=CC1=C2c1c(C)cc(C)cc1C,photoluminescence quantum yield,in C1CCCCC1,0.85
same,photoluminescence quantum yield,in CCOC(C)=O,0.21
N#Cc1c(-n2c3ccccc3c3ccccc32)c(-n2c3ccc(-c4ccccc4)cc3c3cc(-c4ccccc4)ccc32)c(-n2c3ccccc3c3ccccc32)c(-n2c3ccc(-c4ccccc4)cc3c3cc(-c4ccccc4)ccc32)c1-n1c2ccccc2c2ccccc21,photoluminescence quantum yield,in Cc1ccccc1,0.81
same,photoluminescence quantum yield,[1],0.8
Cc1ccc(-c2ccc(C(=O)NC(C)(C)C)c3c2ccc2c4ccccc4c4ccccc4c23)cc1,photoluminescence quantum yield,in ClCCl,0.07
O=S1(=O)C2=C(c3ccccc31)C1(c3ccccc32)c2ccccc2-c2sc3ccccc3c21 (configuration not stated),photoluminescence quantum yield,in ClCCl,0.01
CCCCCCCCCCCCN1C(=O)c2c(c3ccc4cc(-c5ccc(C=O)cc5)c(OC)cc4c3c3c2ccc2cc(-c4ccc(C=O)cc4)c(OC)cc23)C1=O,photoluminescence quantum yield,in ClCCl,0.157
COc1ccc(C2=[N+]3C(=Nc4c(-c5cc(OC)c(OC)c(OC)c5)c(Br)c(-c5ccc(OC)cc5)n4[B-]3(F)F)C(c3cc(OC)c(OC)c(OC)c3)=C2Br)cc1,photoluminescence quantum yield,in Cc1ccccc1,0.002
O=C1CCCC2=C1C(c1ccccc1)c1c(c3ccccc3oc1=O)N2 (configuration not stated),photoluminescence quantum yield,in CS(C)=O,0.41
F[B-]1(F)n2c(-c3cccs3)cc(-c3ccccc3)c2N=C2C(c3ccccc3)=CC(c3cccs3)=[N+]21,photoluminescence quantum yield,in CC#N,0.46
same,photoluminescence quantum yield,in ClCCl,0.44
CN(C)c1ccc(C2=Nc3sc4cc(C(F)(F)F)ccc4[n+]3[B-](F)(F)O2)cc1,photoluminescence quantum yield,in C1CCOC1,0.61
same,photoluminescence quantum yield,in CC#N,0.05
same,photoluminescence quantum yield,in CC(C)=O,0.13
same,photoluminescence quantum yield,in Cc1ccccc1,0.93
same,photoluminescence quantum yield,in ClCCl,1
COc1cc2cc(OC)c(C#Cc3ccc([N+](=O)[O-])cc3)cc2cc1C#Cc1ccc([N+](=O)[O-])cc1,photoluminescence quantum yield,in C1CCOC1,0.009
same,photoluminescence quantum yield,in ClC(Cl)Cl,0.053
same,photoluminescence quantum yield,in ClCCl,0.019
O=C(c1ccc(C(=C(c2ccccc2)c2ccccc2)c2ccccc2)cc1)c1ccc(-n2c3ccccc3c3ccccc32)cc1,photoluminescence quantum yield,in C1CCOC1,0.208
COC(=O)C(Cc1ccc2oc(-c3ccc(N(C)C)cc3)nc2c1)NC(=O)OC(C)(C)C (configuration not stated),photoluminescence quantum yield,in C1CCCCC1,1
same,photoluminescence quantum yield,in C1CCOC1,0.88
same,photoluminescence quantum yield,in C1COCCO1,1
same,photoluminescence quantum yield,in CC1CCCO1,1
same,photoluminescence quantum yield,in CC1COC(=O)O1,1
same,photoluminescence quantum yield,in CC#N,0.95
same,photoluminescence quantum yield,in CC(C)=O,1
same,photoluminescence quantum yield,in CC(C)CC(C)(C)C,0.95
same,photoluminescence quantum yield,in CC(C)CO,1
same,photoluminescence quantum yield,in CC(C)O,1
same,photoluminescence quantum yield,in CC(C)OC(C)C,1
same,photoluminescence quantum yield,in CC(O)CO,0.99
same,photoluminescence quantum yield,in CCC(C)CC,0.92
same,photoluminescence quantum yield,in CCCCC,0.95
same,photoluminescence quantum yield,in CCCCCC,0.93
same,photoluminescence quantum yield,in CCCCCCCCC,1
same,photoluminescence quantum yield,in CCCCCCCCCC,0.93
same,photoluminescence quantum yield,in CCCCCCCO,1
same,photoluminescence quantum yield,in CCCCCCO,1
same,photoluminescence quantum yield,in CCCCCO,1
same,photoluminescence quantum yield,in CCCCO,0.99
same,photoluminescence quantum yield,in CCO,0.98
same,photoluminescence quantum yield,in CCOC(C)=O,1
same,photoluminescence quantum yield,in CCOCC,0.99
same,photoluminescence quantum yield,in CN(C)C=O,0.92
same,photoluminescence quantum yield,in CO,0.81
same,photoluminescence quantum yield,in COCCOC,0.7
same,photoluminescence quantum yield,in CS(C)=O,1
same,photoluminescence quantum yield,in Cc1ccccc1,0.9
same,photoluminescence quantum yield,in Cc1ccccc1C,0.99
same,photoluminescence quantum yield,in ClC(Cl)Cl,0.68
same,photoluminescence quantum yield,in ClCCl,1
same,photoluminescence quantum yield,in NC=O,0.71
same,photoluminescence quantum yield,in OC1CCCCC1,0.91
same,photoluminescence quantum yield,in OCCO,0.76
same,photoluminescence quantum yield,in c1ccccc1,0.97
COc1ccc(C(=Cc2ccc(/C=C/c3ccc(C#N)cc3)cc2)c2ccc(OC)cc2)cc1,photoluminescence quantum yield,in C1CCOC1,0.03
C[n+]1ccn(CCCCc2ccc3c(c2)c2ccccc2n3-c2cc(C#N)c(C#N)cc2-n2c3ccccc3c3cc(CCCCn4cc[n+](C)c4)ccc32)c1,photoluminescence quantum yield,in CC#N,0.026
Cc1ccc2sc3cc(CCC(=O)O)ccc3c(=O)c2c1,photoluminescence quantum yield,in CC#N,0.0041
same,photoluminescence quantum yield,in CC(C)O,0.054
same,photoluminescence quantum yield,in CCO,0.082
same,photoluminescence quantum yield,in CO,0.12
same,photoluminescence quantum yield,in OCCO,0.23
COc1ccc2c3c(c4ccc(OC)cc4c2c1)=[N+]1C(=C(c2c(C)cc(C)cc2C)c2cc4c5ccc(OC)cc5c5cc(OC)ccc5c4n2[B-]1(F)F)C=3,photoluminescence quantum yield,in C1CCCCC1,0.63
same,photoluminescence quantum yield,in C1CCOC1,0.5
same,photoluminescence quantum yield,in CC#N,0.33
same,photoluminescence quantum yield,in Cc1ccccc1,0.54
same,photoluminescence quantum yield,in ClCCl,0.53
C(=C\c1cc(-c2ccc3ccccc3c2)c(/C=C/c2ccc(N(c3ccccc3)c3ccccc3)cc2)cc1-c1ccc2ccccc2c1)/c1ccc(N(c2ccccc2)c2ccccc2)cc1,photoluminescence quantum yield,in ClCCl,0.59
N#Cc1nn(-c2ccccc2Cl)nc1N1CCCC1,photoluminescence quantum yield,in CC#N,0.607
Cc1nc2cccc(-c3nc4ccc(Cl)cc4o3)c2c(=O)[nH]1,photoluminescence quantum yield,in CN(C)C=O,0.275
CCCCCCCCCCCCCCCCCCN1C(=O)c2ccc3c4ccc5c6c(ccc(c7ccc(c2c37)C1=O)c64)C(=O)N(CCCCCCCCCCCCCCCCCC)C5=O,photoluminescence quantum yield,in CN(C)C=O,0.8
Fc1c(F)c(-n2c3ccccc3c3ccccc32)c(F)c(F)c1/C=C/c1ccc(C(=C(c2ccccc2)c2ccccc2)c2ccccc2)cc1,photoluminescence quantum yield,in Cc1ccccc1,0.003
CCOC(=O)c1sc(-c2ccc(-c3cc(-c4ccc(C(C)(C)C)cc4)c(C(=O)OCC)s3)s2)cc1-c1ccc(C(C)(C)C)cc1,photoluminescence quantum yield,in ClCCl,0.15
F[B-]1(F)n2c(cc3ccc4ccccc4c32)C(c2ccc(I)cc2)=C2C=C3CCc4ccccc4C3=[N+]21,photoluminescence quantum yield,in ClC(Cl)Cl,0.17
Cc1ccc2c3ccc(C)cc3c3cc4c(C)cc(=O)oc4cc3c2c1,photoluminescence quantum yield,in ClC(Cl)Cl,0.11
CCCCN(CCCC)c1ccc(/C=C/c2ccc3nc(/C=C/c4nc5ccc(/C=C/c6ccc(N(CCCC)CCCC)cc6)cc5n(CCC)c4=O)c(=O)n(CCC)c3c2)cc1,photoluminescence quantum yield,in C1COCCO1,0.18
same,photoluminescence quantum yield,in ClCCl,0.01
CN1c2cc3nc4cc(F)c(F)cc4nc3cc2N(C)C1(C)C,photoluminescence quantum yield,in CCO,0.8
Cc1cc(C)c(B2c3cc(C(C)(C)C)cc4ccc5c6ccccc6c6cc(C(C)(C)C)cc2c6c5c34)c(C)c1,photoluminescence quantum yield,in C1CCCCC1,0.72
COC(=O)c1ccc(/C=C/C(F)(F)F)c(N)c1,photoluminescence quantum yield,in C1CCOC1,0.74
COc1cc2cc(OC)c(-c3ccc([N+](=O)[O-])cc3)cc2cc1-c1ccc([N+](=O)[O-])cc1,photoluminescence quantum yield,in ClC(Cl)Cl,0.01
same,photoluminescence quantum yield,in ClCCl,0.009
O=S1(=O)c2ccccc2-c2cc(-c3c4ccccc4cc4ccccc34)ccc21,photoluminescence quantum yield,in C1CCCCC1,0.36
same,photoluminescence quantum yield,in CC#N,0.14
same,photoluminescence quantum yield,in ClCCl,0.24
Cc1cc2cc(N3c4ccccc4Oc4ccccc43)ccc2c(=O)o1,photoluminescence quantum yield,[1],0.47
Cc1sc(Cl)cc1-c1nc(-c2ccccc2)[nH]c1-c1cc(Cl)sc1C,photoluminescence quantum yield,in CC#N,0.017
N#Cc1ccc(N(c2ccc(C#N)cc2)c2ccc3c4cccc5c(N(c6ccc(C#N)cc6)c6ccc(C#N)cc6)ccc(c6cccc2c63)c54)cc1,photoluminescence quantum yield,in ClCCl,0.91
COc1ccc2oc(=N)c(C#N)cc2c1,photoluminescence quantum yield,in ClCCl,0.062
c1ccc(-c2cc3cccc[n+]3[b-]3c(-c4cccc5[b-]4[n+]4ccccc4cc5-c4ccccc4)cccc32)cc1,photoluminescence quantum yield,in C1CCCCC1,0.02
COc1ccccc1C1=[N+]2C(=C(c3ccccc3)c3c4ccccc4c(-c4ccccc4OC)n3[B-]2(F)F)c2ccccc21,photoluminescence quantum yield,in ClCCl,0.91
COc1ccc(C2=C3C=CC(C)=[N+]3[B-](F)(F)n3c(C)ccc32)cc1,photoluminescence quantum yield,in C1CCCCC1,0.42
same,photoluminescence quantum yield,in C1CCOC1,0.36
same,photoluminescence quantum yield,in CC#N,0.21
same,photoluminescence quantum yield,in CCOC(C)=O,0.3
same,photoluminescence quantum yield,in CO,0.25
same,photoluminescence quantum yield,in Cc1ccccc1,0.52
same,photoluminescence quantum yield,in ClC(Cl)Cl,0.46
CCCCCCCCCCCCN1C(=O)c2c(c3ccc4cc(-c5ccc(C)cc5)c(OC)cc4c3c3c2ccc2cc(-c4ccc(C)cc4)c(OC)cc23)C1=O,photoluminescence quantum yield,in ClCCl,0.151
COCCOc1cc(C=O)c(OCCOC)cc1C=O,photoluminescence quantum yield,in CC(C)(C)O,0.11
same,photoluminescence quantum yield,in CC(C)CO,0.1
same,photoluminescence quantum yield,in CC(C)O,0.1
same,photoluminescence quantum yield,in CCCCO,0.17
same,photoluminescence quantum yield,in CCCO,0.19
same,photoluminescence quantum yield,in CCO,0.18
same,photoluminescence quantum yield,in CN(C)C=O,0.03
same,photoluminescence quantum yield,in CNC=O,0.08
same,photoluminescence quantum yield,in CO,0.22
same,photoluminescence quantum yield,in NC=O,0.3
same,photoluminescence quantum yield,in O,0.54
CCOC(=O)c1sc(-c2ccc(-c3cc(-c4cccs4)c(C(=O)OCC)s3)s2)cc1-c1cccs1,photoluminescence quantum yield,in ClCCl,0.18
CC(C)(C)c1ccc2oc3nc4oc5ccc(-n6c7ccccc7c(=O)c7ccccc76)cc5c4cc3c2c1,photoluminescence quantum yield,in ClC(Cl)Cl,0.391
